Our source for the TGI values is PubChem BioAssay (NCI).

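Test compounds were applied to cells in 96-well plates for 48 hours at 5 doses. The concentration for full growth arrest is given as TGI.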

Test systems include ACHN renal; K-562 leukemia; SF-295 CNS; KM12 colon; DLD-1 colon; SK-MEL-2 melanoma; NCI-H226 lung; HOP-92 NSCLC; M14 melanoma; HCC-2998 colon; EKVX NSCLC; SN12C renal; NCI-H23 lung; SNB-75 CNS; CAKI-1 renal; SK-OV-3 ovarian; SW-620 colon; DU-145 prostate; T-47D breast; BT-549 breast.
Holding throughout (test): inhibition of tumour cell growth, NCI panel, 48 h

For the compound `Cc1ccc(NC(=O)/C(C#N)=C/c2ccccc2)c(C)c1`, the TGI with ACHN renal, with K-562 leukemia, in the assay with SF-295 CNS, in the assay on KM12 colon, in the assay with DLD-1 colon and in the assay on SK-MEL-2 melanoma was over 100 µM throughout. Besides, the TGI in the assay with NCI-H226 lung, in the assay on HOP-92 NSCLC, in the assay on M14 melanoma, in the assay on HCC-2998 colon, with EKVX NSCLC and with SN12C renal was over 100 µM in each case. Moreover, the TGI in the assay with NCI-H23 lung, with SNB-75 CNS, in the assay on CAKI-1 renal, in the assay on SK-OV-3 ovarian and in the assay on SW-620 colon was over 100 µM throughout.

As for `NC(CCCCNCc1ccccc1O)C(=O)O` (stereo unspecified), the TGI in the assay on ACHN renal, with K-562 leukemia, in the assay with SF-295 CNS, in the assay on KM12 colon, with DLD-1 colon and with SK-MEL-2 melanoma was over 100 µM in each case. For the same compound, the TGI with NCI-H226 lung, in the assay on HOP-92 NSCLC, in the assay on M14 melanoma, in the assay on HCC-2998 colon, with EKVX NSCLC and with SN12C renal was over 100 µM each time. Also, the TGI in the assay on NCI-H23 lung, in the assay on SNB-75 CNS, in the assay on CAKI-1 renal, in the assay with SK-OV-3 ovarian and in the assay on SW-620 colon was over 100 µM throughout.

For the compound `CN(C)C(F)=PC(F)(F)F` (stereo unspecified), the TGI with ACHN renal, in the assay with K-562 leukemia, in the assay on SF-295 CNS, in the assay with KM12 colon, in the assay with DLD-1 colon and with SK-MEL-2 melanoma was over 100 µM each time. The TGI in the assay with NCI-H226 lung, with HOP-92 NSCLC, with M14 melanoma, in the assay on HCC-2998 colon, with EKVX NSCLC and in the assay on SN12C renal was over 100 µM in each case. Moreover, the TGI in the assay on NCI-H23 lung, in the assay on SNB-75 CNS, in the assay with CAKI-1 renal, in the assay on SK-OV-3 ovarian and in the assay with SW-620 colon was over 100 µM each time.

For `C#CCNC(=O)NC(CCCCNC(=O)OCc1ccccc1)C(=O)OCc1ccccc1` (stereo unspecified), the TGI in the assay with ACHN renal, in the assay with K-562 leukemia, in the assay on SF-295 CNS, in the assay with KM12 colon, with DLD-1 colon and in the assay with DU-145 prostate was over 100 µM in each case. Besides, the TGI with SK-MEL-2 melanoma is over 75.8 µM; in the assay on NCI-H226 lung it was over 100 µM; in the assay on HOP-92 NSCLC, 54 µM; with T-47D breast, over 32.4 µM; in the assay on M14 melanoma, 58.4 µM; in the assay with BT-549 breast, over 100 µM. Besides, the TGI in the assay on HCC-2998 colon is over 74.1 µM; in the assay with EKVX NSCLC, over 100 µM; in the assay with SN12C renal, over 81.1 µM; in the assay with NCI-H23 lung, over 100 µM; in the assay with SNB-75 CNS it was 37.3 µM; with CAKI-1 renal it was over 100 µM. In addition, the TGI in the assay on SK-OV-3 ovarian and with SW-620 colon was over 100 µM throughout.
